Tests used:
[1] = Unbound exposure in blood (dry blood spots, LC/MSMS, fraction unbound by dialysis) in threshold tracking study; type: in vivo; conditions: rat
Protocol: In threshold tracking assay to measure the excitability properties of peripheral axons studies in rat, compound is administered by IP at 3, 10 or 30 mg/kg using 1% hydroxyethylcellulose: 0.25% polysorbate 80:0.05% antifoam:purified water (HEC) formulation. Dry blood spots (DBS) are collected around 10, 20, 30 and terminal 40 min post-dose. DBS samples are dried at RT for around 2 h. Brain samples are obtained at terminal time point and frozen until analysis. DBS samples are shipped and stored at RT.
A 1-mg/mL stock solution of Example 1 is prepared and is serially diluted into pooled rat blood to prepare standards ranging from 1 to 10000 ng/mL. Blood wis spiked to blank DBS cards to make the standards. One 3 mm punch of the DBS standards or samples are added to 96 well plate and 180 μL of the internal standard (IS) in 1:1 ACN:MeOH is added. Shake for 45 min, dilute the extraction solution two fold with water, and analyze by LC/MSMS for drug concentration analysis.
Samples and standards are analyzed with a Sciex API 4000 Triple Quadrupole Mass Spectrometer (Sciex, Division of MDS Inc., Toronto, Canada) coupled to a Shimadzu HPLC System (LC-IOAD, Shimadzu Corporation) and a Gilson 215 Autosampler. […] Quantitation is performed using multiple reaction monitoring (MRM) at the following transitions: Example 1 (m/z 350.2 to m/z 233.0) and an analog internal standard (m/z 263.1 to m/z 148.1). […]
Drug binding to rat plasma proteins and brain homogenates is determined using in vitro dialysis method after spiking drug into these matrixes and incubated over 4.5 h at 37° C., while undergoing orbital shaking. […] Parent is quantitated by LC-MSMS at both 0 and […] time points. Fraction unbound is calculated by dividing the concentration of the buffer side by the concentration of the protein side. Percent recovery is also calculated by dividing the sum of the buffer and protein chambers by the time 0 concentration after 4.5 h. […]

[2] = biological target: T1, hKv7.2 and hKv7.3 (Kv7.2/7.3) (Homo sapiens, UniProt O43525+O43526); test: Modulation of Kv7.2/7.3 conductance, automated electrophysiology (IonWorks Barracuda, population patch clamp) in HEK293 cells; type: cell-based; design: Voltage Shift ([…]V0.5), Mean: unit not given here
T1 construct: host or cells: HEK293
Protocol: Modulation of Kv7.2/7.3 Conductance by Kv7 Potentiators in a Mammalian Expression System
The potency and efficacy of Kv7 potentiators is assessed by automated electrophysiology on the IonWorks Barracuda (Molecular Devices) platform using the population patch clamp mode of the instrument.
Cell Culture: HEK293 cells stably expressing hKv7.2 (under tetracycline induction) and hKv7.3 (Catalog #CT6147, Charles River) are used for these studies. Cells are maintained in a Dulbecco's modified Eagle's medium/nutrient mixture Ham's F-12 (Sigma-Aldrich) supplemented with 5% tetracycline-screened fetal bovine serum (Sigma-Aldrich), 15 mM HEPES, 500 μg/mL G418, 100 U/mL penicillin, 100 μg/mL streptomycin, […] L-glutamine, 100 μg/mL zeocin, and 5 μg/mL blasticidin. Expression of hKv7.2 is induced by addition of 1 μg/mL doxycycline 24 h prior to recordings.
Cells are cultured in Corning T-150 flasks to a confluence of 85%-95%. At the start of an experiment, cells are washed once with D-PBS without calcium and magnesium and then dissociated by incubating in 3 ml of 0.25% trypsin for 8 min at 37° C. Cells ware resuspended in media, triturated gently, and centrifuged for 4 min at 1,000 rpm. Cells are resuspended in external solution to a final concentration of 2.5-3.5M cells/mL.
Solutions: External solution w is composed of (in mM): 140 NaCl, 5 KCl, 2 CaCl2, 1 MgCl2, 10 HEPES, 10 Glucose, pH 7.4. Internal solution is composed of (in mM): 90 K-gluconate, 40 KCl, 3.2 EGTA, 3.2 MgCl2, 5 HEPES, pH 7.25. The membrane perforating agent amphotericin B is prepared daily as a 27 mg/mL stock solution in DMSO and then added to the internal solution to a final concentration of 0.1 mg/mL. Test article dilutions are prepared in 384-well plates from 10 mM DMSO stock solutions and diluted using acoustic dispensing (Labcyte ECHO®), such that final DMSO concentrations are 0.1%.
Electrophysiological Recordings: Resuspended cells are placed on the IONWORKS® BARRACUDA™ (IWB) instrument, external solution is added to a 384-well patch plate, and a hole test is performed to determine blocked wells and offset voltages. Cells are then added to the patch plate (9 μL per well) by the instrument. Two seal tests are performed prior to introducing the perforating agent amphotericin in the internal solution and allowing approximately 8 min to obtain electrical access, which is verified by a third seal test. The command voltage protocol consists of a family of 1 sec voltages steps from −80 mV to +40 mV from a holding potential of −80 mV and is applied prior to (baseline) and 6 min after test article addition.
Data Analysis: Data are acquired and leak subtracted using IWB software. Current amplitudes during the last 10 msec of each voltage step are averaged and exported. Further analysis is performed using Microsoft Excel and GraphPad Prism. Current amplitude is converted to conductance (G) by the following formula: G=I/(V−Ek) where I=current, V=step potential, Ek=potassium reversal potential (−84 mV). Conductance in the presence of test article is normalized to the baseline conductance at +40 mV for the same well. Conductance-voltage (G−V) curves are fitted with the Boltzmann equation y=Bottom+(Top−Bottom)/(1+EXP((Vm−V0.5/k)).
Fitting a 4-parameter logistic equation to the data may be used to determine the potency (EC50) and efficacy (maximal shift) for each test compound.

[3] = 4-parameter logistic fit of voltage shift data

With `CC(C)(C)[C@H](O)CNC(=O)NCc1ccnc(OCC(F)(F)F)c1` [Example 1, 1-[(2S)-2-hydroxy-3,3-dimethyl-butyl]-3-[[2-(2,2,2-trifluoroethoxy)-4-pyridyl]methyl]urea] the “Unbound Exposure in Blood (±SEM)” value ([1]; 3 mg/kg (IP)) was 145 (±90) nM, the “Unbound Exposure in Blood (±SEM)” value ([1]; 10 mg/kg (IP)) was 193 (±50) nM and the “Unbound Exposure in Blood (±SEM)” value ([1]; 30 mg/kg (IP)) was 352 (±245) nM. The “Voltage Shift ([…]V0.5), Mean” value ([2]; 0.0005 μM) was 2.6, the “Voltage Shift ([…]V0.5), Mean” value ([2]; 0.0015 μM) was 2.0 and the “Voltage Shift ([…]V0.5), Mean” value ([2]; 0.005 μM) was 3.0. The “Voltage Shift ([…]V0.5), Mean” value ([2]; 0.01 μM) was 1.6, the “Voltage Shift ([…]V0.5), Mean” value ([2]; 0.04 μM) was 1.3 and the “Voltage Shift ([…]V0.5), Mean” value ([2]; 0.12 μM) was 0.0. For the same compound, the “Voltage Shift ([…]V0.5), Mean” value ([2]; 0.37 μM) was −3.5, the “Voltage Shift ([…]V0.5), Mean” value ([2]; 1.11 μM) was −13.2 and the “Voltage Shift ([…]V0.5), Mean” value ([2]; 3.33 μM) was −28.0. The “Voltage Shift ([…]V0.5), Mean” value ([2]; 10 μM, difference from control in voltage at half-maximal conductance) was −38.0, the “Maximal Shift (efficacy)” value [2, 3] was −44 and the Slope [2, 3] was 1.2. For the same compound, the EC50 ([2]; 4-parameter logistic fit of voltage shift data, read-out: EC50 (potency of V0.5 shift)) was 2 µM.
